Laboratory results from publication PMC5570892, “Indole-based perenosins as highly potent HCl transporters and potential anti-cancer agents” (Scientific Reports, 2017).
Like-named read-outs stand apart in the source and are kept apart here.

What was measured:
MDA-MB-231 cells = experiment: MTT cell viability assay; format: cell-based; settings: Homo sapiens, error from three repeats in brackets
Experimental: Herein, we carried out further in vitro studies at the University of Barcelona for the full library of perenosins. Single dose screening for cell viability using the methylthiazoletetrazolium (MTT) colorimetric assay over five different cell lines (cancer cells MCF-7, MDA-MB-231, A549 and SW620, and non-cancerous human cells MCF-10A) was conducted.
While perenosin 5, with pentyl substituent at R3, has similar cell viability effects as 1d, bis-indole perenosin 7 with pentyl substituent at R1 has a moderate degree of late onset by a factor of 7.
S11.1 Cell Lines and Culture Conditions
The human cell lines were obtained from the American Type Culture Collection (ATCC, Manassas VA). Breast adenocarcinoma MDA-MB-231 and MCF-7 cells were maintained in DMEM:F12 media (1:1; Biological Industries, Beit Haemek, Israel), and 10 µg/ml insulin and 50 µM sodium pyruvate from Sigma-Aldrich Chemical Co. (St. Louis, MO) were added to MCF-7 cells. Lung adenocarcinoma A549 and colorectal adenocarcinoma SW620 cells were cultured in DMEM media. All were supplemented with 10% foetal bovine serum (FBS; Invitrogen-Life Technologies, Carlsbad, CA) and 100 U/mL penicillin, 100 µg/mL streptomycin and 2 mM L-glutamine, all from Biological Industries.
Mammary epithelial MCF-10A cells were maintained in DMEM:F12 media supplemented with 5% horse serum (Life Technologies), 20 ng/ml EGF, 0.5 µg/ml Hydrocortisone, 100 ng/ml Cholera toxin, 10 µg/ml insulin all from Sigma-Aldrich and 100 U/ml penicillin, 100 µg/ml streptomycin, and 2 mM L- glutamine (Biological Industries). Cells were grown at 37 °C under a 5% CO2 atmosphere.
S11.2 Cell Viability Assays
Cell viability was evaluated using the methylthiazoletetrazolium (MTT) colorimetric assay. Cancer cells (MCF-7, MDA-MB-231, A549 and SW620) or non-cancerous human cells MCF-10A cells were harvested (10^4 cells/well) in 96-well plates in a final volume of 100 µl and allowed to grow overnight.
After 24 h, vehicle solution (DMSO) or experimental compounds were added at 10 µM (single point experiment) or at different ranging concentrations (0.8-100 µM) to the assay plate and were incubated for 24 or 72 h. Then, 10 µl of MTT (5 mg/ml; Sigma-Aldrich) were added and the plates were incubated for 4 h at 37°C. 100 µl of DMSO (Sigma-Aldrich) were added to dissolve crystals and the reading was taken spectrophotometrically at 570 nm using a multi-well plate reader (Multiskan FC, Thermo Scientific, Waltham, MA, USA). Cell viability and inhibitory concentration (IC) values were obtained using GraphPad Prism v5.0 (Graphpad Software, San Diego, CA, USA). All data are shown as the mean value ± standard deviation (S.D.) of three independent experiments.

[1] = Cl^−/NO3^− ISE assay in POPC:cholesterol (7:3) vesicles; format: biochemical; settings: 0.1 mol% loading, pH 7.2
Experimental: To further probe other aspects of transmembrane transport mechanism of perenosins, a variety of studies were employed. […] Using the same conditions for sulfate transport, and adding a bicarbonate pulse at 120 s to give a final external bicarbonate concentration of 40 mM, allowed observation of potential Cl^−/HCO3 ^− antiport elicited by 1d and 2–8; no Cl^− efflux was detected, presumably due to the basicity of bicarbonate anion preventing protonation of the imine-N2. Finally, preincorporation of 1d and 2–6 into POPC vesicles followed by performing a similar NMDG-Cl assay, and subsequent dilution of the resulting lipid solution, investigated how perenosins behave in a lipid membrane environment. […] See Supplementary Information for more details of results and experimental details of these assays.
S10. Anion Transport Studies
S10.1. General Procedure for the ISE Assay
Unilamellar vesicles were prepared using previously reported literature procedures7-9. A lipid film of POPC (1-palmitoyl-2-oleoyl-sn-glycero-3-phosphocholine) or POPC:cholesterol (7:3 molar ratio) was prepared from a chloroform solution under reduced pressure and then dried under vacuum for 4 or more hours. The lipid film was rehydrated by vortexing with an internal solution of buffered metal chloride salt (usually 489 mM MCl). The lipid suspension was then subjected to 9 freeze-thaw cycles and left to rest at room temperature for 30 minutes. After this, the suspension was extruded 25 times through a 200 nm polycarbonate membrane resulting in unilamellar vesicles of a mean diameter of 200 nm. […]
The lipid stock was diluted with the external buffer solution to a standard volume (5 mL), to afford a solution with a lipid concentration of 1 mM. The compounds were added as a DMSO solution (10 μL) at the start of the experiment and the resulting chloride efflux was monitored using a chloride selective electrode over 5 minutes. After this time, detergent (50 μL of Triton X-100 (11 w%) in H2O:DMSO (7:1 v/v)) was added to lyse the vesicles and after 7 minutes a final chloride efflux reading was taken. […]

[2] = MDA-MB-231, 24 h exposure, read-out: IC50 (24 h)
[3] = MDA-MB-231, 72 h exposure, read-out: IC50 (72 h)

Compound: CCCCCc1cc(/N=C/c2[nH]c(C)cc2C)c2[nH]ccc2c1 [Perenosin 1d]
- IC50 (MDA-MB-231 cells; [2]): 25.2 µM
- IC50 (MDA-MB-231 cells; [3]): 16.6 µM

Compound: CCCCCc1cc2cc(C)cc(/N=C/c3[nH]c(C)cc3C)c2[nH]1 [Perenosin 2]
- chloride efflux in POPC:Cholesterol (7:3) vesicles [1]: 70%
- IC50 (MDA-MB-231 cells; [2]): > 100 µM
- IC50 (MDA-MB-231 cells; [3]): 11.3 µM

Compound: CCCCCc1cc2cc(C(F)(F)F)cc(/N=C/c3[nH]c(C)cc3C)c2[nH]1 [Perenosin 3]
- IC50 (MDA-MB-231 cells; [2]): > 100 µM
- IC50 (MDA-MB-231 cells; [3]): 9.5 µM

Compound: CCCc1cc2cc(C)cc(/N=C/c3[nH]c(C)cc3C)c2[nH]1 [Perenosin 4]
- IC50 (MDA-MB-231 cells; [2]): > 100 µM
- IC50 (MDA-MB-231 cells; [3]): 9.2 µM

Compound: CCCCCc1c(C)[nH]c(/C=N/c2cc(C)cc3cc[nH]c23)c1C [Perenosin 5]
- IC50 (MDA-MB-231 cells; [2]): 20.3 µM
- IC50 (MDA-MB-231 cells; [3]): 14 µM

Compound: CCCCCc1cc2cc(C)cc(/N=C/c3[nH]c(C)c(CCCCC)c3C)c2[nH]1 [Perenosin 6]
- IC50 (MDA-MB-231 cells; [2]): > 100 µM
- IC50 (MDA-MB-231 cells; [3]): 4.2 µM

Compound: CCCCCc1cc(/N=C/c2[nH]c3ccccc3c2C)c2[nH]ccc2c1 [Perenosin 7]
- chloride efflux in POPC:Cholesterol (7:3) vesicles [1]: no chloride efflux
- IC50 (MDA-MB-231 cells; [2]): 73.8 µM
- IC50 (MDA-MB-231 cells; [3]): 11 µM

Compound: CCCCCc1cc2cc(C)cc(/N=C/c3[nH]c4ccccc4c3C)c2[nH]1 [Perenosin 8]
- chloride efflux in POPC:Cholesterol (7:3) vesicles [1]: no chloride efflux
- IC50 (MDA-MB-231 cells; [2]): > 100 µM
- IC50 (MDA-MB-231 cells; [3]): 38 µM
